Residue numbers refer to the chain shown, from its start.
Assays:
[1] = test system: human peripheral blood neutrophils; test: NETosis assay in human neutrophils (SYTOX Green, DNA area); assay type: cell-based; details: PMA; SAR analogs compared to LDC7559
Method: Freshly purified neutrophils were plated at 6 × 10^3 cells/well in glass bottom 96-well plates (SensoPlate, Greiner Bio-One 82050-792) in the RPMI medium described above. Cells were pretreated with DMSO vehicle, 0.5 μM NA-11, 100 μM apocynin, 0.5 μM and 5 μM PALP, or 0.5 μM and 5 μM LDC7559 for 30 min, and then stimulated with 50 nM PMA, 1 μM f-MLP, 5 μg/mL cholesterol crystals, 10 μg/mL LPS, 25 μM nigericin, or 25 μM calcymicin (A23187) for 3 h (except in Figures S1A, 6A and S7C, where cells were stimulated for 4 h). Cells were fixed and permeabilized in 2.5% paraformaldehyde (PFA) and 0.02% Triton X-100 in PBS for 30 min. For quantification of NETosis, cells were stained with 150 nM SYTOX Green and imaged in a KEYENCE Fluorescence Microscope (KEYENCE, ZB-X800E) at 10 x magnification. For immunolabeling, fixed cells were blocked with 2% BSA for 1 h, and then stained with anti-CitH3 and anti-MPO antibodies at a dilution of 1/200 in 1% BSA in PBS. Images were taken at 60 x magnification using an ImageXpress Micro Confocal high-content imaging system (Molecular Devices).
Semi-automated analysis of both phase and fluorescence images of SYTOX Green-stained neutrophils used a specialized MATLAB algorithm. Total cells were counted by scoring phase standard deviation and radial symmetry. NETosis was classified in cells by measuring the DNA area in the fluorescence image and comparing with a select internal training set for each experiment. Unstimulated cells and PMA-stimulated, […] cells served as negative controls. PMA-stimulated cells served as a positive control. NET-forming cells are presented as a percentage of total cells.

PFKL = molecular target: T1, PFKL (Homo sapiens, UniProt P17858); test: Recombinant PFKL activity assay (relief of ATP inhibition); assay type: biochemical; details: at 3.1 mM ATP; F6P approximately twice the Km,F6P
T1 construct: made in house; host or cells: Sf9 insect cells (baculovirus, Bac-to-Bac)
T1 sequence (P17858 1-780): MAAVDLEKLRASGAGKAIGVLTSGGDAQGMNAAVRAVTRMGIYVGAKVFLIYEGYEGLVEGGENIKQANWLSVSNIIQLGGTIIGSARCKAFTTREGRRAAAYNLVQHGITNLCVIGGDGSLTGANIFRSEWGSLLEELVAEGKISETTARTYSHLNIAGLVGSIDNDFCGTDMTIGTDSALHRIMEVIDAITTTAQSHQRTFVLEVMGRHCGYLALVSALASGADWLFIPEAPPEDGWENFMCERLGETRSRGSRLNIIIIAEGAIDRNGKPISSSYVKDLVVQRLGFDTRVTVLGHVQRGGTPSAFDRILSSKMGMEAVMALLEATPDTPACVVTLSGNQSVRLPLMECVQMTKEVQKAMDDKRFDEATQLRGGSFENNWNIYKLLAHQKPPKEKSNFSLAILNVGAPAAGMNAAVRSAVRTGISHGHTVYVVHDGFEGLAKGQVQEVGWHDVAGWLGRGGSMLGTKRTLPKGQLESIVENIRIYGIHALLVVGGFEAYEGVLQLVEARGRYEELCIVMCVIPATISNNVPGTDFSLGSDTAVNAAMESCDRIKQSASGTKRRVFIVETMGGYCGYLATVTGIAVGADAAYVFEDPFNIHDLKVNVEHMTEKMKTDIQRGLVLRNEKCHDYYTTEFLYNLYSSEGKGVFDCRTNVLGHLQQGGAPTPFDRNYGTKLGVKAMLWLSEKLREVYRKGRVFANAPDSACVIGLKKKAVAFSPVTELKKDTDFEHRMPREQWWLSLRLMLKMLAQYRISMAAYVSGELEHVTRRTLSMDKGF
Text: (§1) Recombinant N-terminal His-tagged human PFKL (NP_002617), PFKM (NP_000280), and PFKP (NM_002627.4) were generated as described ([Webb et al., 2015], [2017]). Point mutants of PFK1 were generated using the QuikChange Lightning kit (Aligent).
(§2) His-tagged PFK1 was expressed and purified as described with slight modifications ([Webb et al., 2015], [2017]). Briefly, baculovirus was generated using the Bac-to-Bac Expression system (Invitrogen). PFK1 was expressed in 2-5 × 10^6 sf9 cells at a multiplicity of infection of two for 48 h. Cells were lysed in 20 mM HEPES, pH 7.5, 80 mM potassium phosphate, 1 mM 2-mercapentoethanol, 10% glycerol, 10 mM imidazole, and EDTA-free Protease Inhibitor Cocktail (Abcam) with a Dounce homogenizer. The soluble lysate was incubated with HisPur cobalt resin (ThermoFisher Scientific). The resin was washed with 5 bead volumes lysis buffer, 10 bead volumes lysis buffer containing 2 M NaCl, and 5 further bead volumes lysis buffer. PFK1 was eluted in lysis buffer containing 100 mM imidazole. Fractions containing protein were pooled, passed over a desalting column equilibrated in freezing buffer [20 mM HEPES pH 7.5, 1 mM DTT, 500 μM ammonium sulfate, 5% glycerol, 1 mM ATP, and 100 μM EDTA] and concentrated using an Amicon Ultracel-30K Centrifugal Filter Unit (MilliporeSigma). Protein was quantified using a Bradford Protein Assay kit (ThermoFisher Scientific), and aliquotes frozen in liquid nitrogen for storage at −80°C.
(§3) PFK1 activity was determined using the rate of FBP production via an auxiliary enzyme assay adapted to a 96-well format ([Brüser et al., 2012]; [Webb et al., 2015]). The auxiliary enzymes aldolase, triosephosphate isomerase, and glycerol phosphate dehydrogenase were purchased from MilliporeSigma as ammonium sulfate slurries and desalted using an Amicon Ultracel-10K Centrifugal Filter Unit. For assays containing FBP, the rate of ADP production was determined using the auxiliary enzymes pyruvate kinase (PK) and lactate dehydrogenase (LDH) (MilliporeSigma) in a buffer containing 250 μM phosphoenolpyruvic acid, […] NADH, 50 mM HEPES pH 7.5, 100 mM KCl, 1 mM DTT, and effector concentrations as described in the text. The temperature was equilibrated to 25°C for 5 min before initiating the reaction 10 mM MgCl2. Absorbance at 340 nm was measured using a Varioskan LUX Multimode microplate reader (ThermoFisher). Kinetic parameters were generated by nonlinear regression analysis using Prism (GraphPad Software) and are the mean of a minimum of three measurements from two independent preparations of protein. One unit of activity was defined as the amount of enzyme that catalyzed the formation of 1 μmol of fructose 1,6-bisphosphate per min at 25°C. Assays for PFKM were performed at pH 7.0 due to the pH-dependence of ATP inhibition ([Trivedi and Danforth, 1966]).

[2] = molecular target: T2, PFKL (K315R, V545L, and V582M), PFKL3Mut (Homo sapiens, UniProt P17858, K315R/V545L/V582M); test: Recombinant PFKL3Mut activity assay; assay type: biochemical; details: at 3.1 mM ATP; F6P approximately twice the Km,F6P
T2 construct: made in house; host or cells: Sf9 insect cells (baculovirus)
T2 sequence (P17858 1-780 K315R/V545L/V582M): T1 sequence (P17858 1-780) with K315R, V545L, V582M
Text: as §1, §2, §3

[3] = molecular target: T3, PFKM+pocket (R315 to lysine) (Homo sapiens, UniProt P08237, R315K); test: Recombinant PFKM+pocket activity assay; assay type: biochemical; details: at 4 mM ATP
T3 construct: made in house; host or cells: Sf9 insect cells (baculovirus)
T3 sequence (P08237 1-780 R315K): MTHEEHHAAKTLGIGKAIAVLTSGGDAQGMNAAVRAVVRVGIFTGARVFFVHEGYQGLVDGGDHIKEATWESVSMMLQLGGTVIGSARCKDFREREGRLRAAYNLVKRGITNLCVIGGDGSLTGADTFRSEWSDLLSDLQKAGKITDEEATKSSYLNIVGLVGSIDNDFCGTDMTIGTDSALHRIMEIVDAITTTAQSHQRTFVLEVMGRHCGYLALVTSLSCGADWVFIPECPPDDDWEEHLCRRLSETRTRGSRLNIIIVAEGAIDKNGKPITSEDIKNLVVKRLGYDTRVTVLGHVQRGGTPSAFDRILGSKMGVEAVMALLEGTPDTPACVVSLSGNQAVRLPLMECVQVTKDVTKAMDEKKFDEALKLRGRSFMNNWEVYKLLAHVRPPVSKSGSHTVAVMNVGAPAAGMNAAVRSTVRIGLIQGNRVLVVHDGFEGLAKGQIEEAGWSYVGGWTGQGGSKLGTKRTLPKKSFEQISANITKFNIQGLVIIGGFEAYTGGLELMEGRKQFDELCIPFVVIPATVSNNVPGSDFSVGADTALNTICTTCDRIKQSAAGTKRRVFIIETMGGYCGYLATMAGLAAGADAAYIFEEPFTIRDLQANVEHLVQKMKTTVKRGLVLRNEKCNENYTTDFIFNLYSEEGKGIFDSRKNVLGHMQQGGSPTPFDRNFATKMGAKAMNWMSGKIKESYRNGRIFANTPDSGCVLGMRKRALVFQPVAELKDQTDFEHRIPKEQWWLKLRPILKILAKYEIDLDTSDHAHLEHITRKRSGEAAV
Text: as §1, §2
as §3, with “Assays for PFKM were performed at pH 7.0 due to the pH-dependence of ATP inhibition ([Trivedi and Danforth, 1966]).” left out

PMNs = test: NADPH/NADP+ detection assay in neutrophils; assay type: cell-based, human; details: PMA 30 min, then apocynin
Method: The ratio of NADPH/NADP^+ (or NADH/NAD^+) was calculated after measuring the individual concentrations of NADPH and NADP^+ (or NADH and NAD^+) with NADP/NADPH-Glo (or NAD/NADH-Glo) assays (Promega). […] Cells were lysed in plates by addition of 1% dodecyltrimethylammonium bromide (DTAB). To measure NADPH, half of the samples was heated at 60 °C for 30 min. The other half was treated with HCl before heating to 60°C, to measure NADP^+. All samples were neutralized before adding luciferase detection reagent, then incubated for 1 h with gentle shaking. Luminescence was recorded on a plate reader (Envision).

PFK1 = PFK1 activity in PMN lysates; assay type: cell-based, human; details: neutrophils treated with PMA, LPS, or cholesterol crystals
Method: PFK1 activity assays from neutrophil lysates were modified from Abrantes et al., 2012. Briefly, neutrophils (10^7) were cultured with 0.5 μM NA-11 for 30 min, and then stimulated with 50 nM PMA, 5 μg/mL cholesterol crystals, 10 μg/mL LPS or 25 μM nigericin for 30 min. Cells were lysed in 10 mM PBS, 1% Triton X-100, and 1 x EDTA-free protease inhibitor cocktail on ice for 10 min. The soluble protein lysates were quantified by BCA assay (Pierce) and adjusted to 0.3125 mg/mL with lysis buffer. Lysate (80 μL) was mixed with 100 μL 2x enzyme cocktail solution (100 mM Tris-HCL pH7.4, 10 mM MgCl2, 0.5 mM ATP, 0.3 mM NADH, 1.35 units/mL Aldolase, 10 units/mL Triose phosphate isomerase, 4 units/mL glycerophosphate dehydrogenase, 20 mM ammonium sulfate) equilibrated to reach room temperature for 5 min. 20 μL of Fructose-6-phosphate (40 mM) was added and the reaction monitored for NADH decrease (absorbance at 340 nm) every 30 s for 30 min. Specific activity is in pmoles FBP per min per mg lysate.

Compound: CC#CCC(=O)Nc1cccc(-c2cc3n(n2)Cc2ccc(NC(C)=O)cc2OC3)c1 [NA-9]
- inhibition of PMA-induced NETosis [1]: largely tolerated

Compound: Nc1ncnc2c1ncn2[C@@H]1O[C@H](COP(=O)(O)OP(=O)(O)OP(=O)(O)O)[C@@H](O)[C@H]1O [ATP]
- ATP inhibition of wild-type PFKL (PFKL): > 80%
- inhibition of mutant PFKL (PFKL3Mut) [2]: > 80%
- inhibition of PFKM+pocket [3]: > 90%

Compound: NC(=O)c1ccc(N)nc1 [6-aminonicotinamide, reference compound]
- NADPH replenishment / turnover after apocynin (PMNs): effectively blocked NADPH turnover

Compound: CC#CCC(=O)Nc1ccc2c(c1)OCc1cc(-c3ccccc3OC)nn1C2 [NA-2]
- inhibition of PMA-induced NETosis [1]: no inhibitor activity

Compound: COc1cccc(-c2cc3n(n2)Cc2ccc(NC(C)=O)cc2OC3)c1 [NA-6]
- inhibition of PMA-induced NETosis [1]: slight increase in inhibitory activity

Compound: bisindolylmaleimide [reference compound]
- activation-induced reduction in PFK1 activity (PFK1): prevented the decrease in PFKL activity

Compound: CC(=O)Nc1ccc2c(c1)OCc1cc(-c3cccc(C#CCCCO)c3)nn1C2 [NA-10]
- inhibition of PMA-induced NETosis [1]: largely tolerated

Compound: COc1ccc(-c2cc3n(n2)Cc2ccc(NC(C)=O)cc2OC3)cc1 [NA-7]
- inhibition of PMA-induced NETosis [1]: slight increase in inhibitory activity

Compound: CC(=O)Nc1ccc2c(c1)OCc1cc(Br)nn1C2 [NA-8]
- inhibition of PMA-induced NETosis [1]: inactive

Source: publication PMC8802628, “Selective activation of PFKL suppresses the phagocytic oxidative burst” (Cell, 2021)
